{
  "source": "patent US11806342B2",
  "about": "“Diiodohydroxyquinoline for the treatment of clostridium difficile infection” (Purdue Research Foundation, priority 2019, dated 2023)",
  "key": {"[1]": {"system": "Bacteroides fragilis HM-711", "assay": "MIC against normal gut microflora, broth microdilution", "format": "cell-based", "conditions": "Bacteroides fragilis, HM711", "procedure": "(§1) In vitro antimicrobial evaluation of diiodohydroxyquinoline against normal microflora. The broth microdilution assay was utilized to determine the MICs of DIHQ and control antibiotics against commensal organisms that compose he human gut microflora, as described elsewhere. A bacterial solution equivalent to 0.5 McFarland standard was prepared and diluted in BHIS broth (for Bifidobacterium and Bacteroides) or in MRS broth (for Lactobacillus) to achieve a bacterial concentration of about 5×10^5 CFU/mL. Then, drugs were added and serially diluted along the plates."}, "Bacteroides dorei HM-718": {"system": "Bacteroides dorei HM-718", "assay": "MIC against normal gut microflora, broth microdilution", "format": "cell-based", "conditions": "Phocaeicola dorei, HM718", "procedure": "as §1"}, "[2]": {"system": "Bacteroides fragilis HM-710", "assay": "MIC against normal gut microflora, broth microdilution", "format": "cell-based", "conditions": "Bacteroides fragilis, HM710", "procedure": "as §1"}, "[3]": {"system": "Bifidobacterium breve HM-411", "assay": "MIC against normal gut microflora, broth microdilution", "format": "cell-based", "conditions": "Bifidobacterium breve, HM411", "procedure": "as §1"}, "[4]": {"system": "Bacteroides fragilis HM-709", "assay": "MIC against normal gut microflora, broth microdilution", "format": "cell-based", "conditions": "Bacteroides fragilis, HM709", "procedure": "as §1"}, "[5]": {"system": "Bifidobacterium longum HM-847", "assay": "MIC against normal gut microflora, broth microdilution", "format": "cell-based", "conditions": "Bifidobacterium longum, HM847", "procedure": "as §1"}, "Bacteroides dorei HM-29": {"system": "Bacteroides dorei HM-29", "assay": "MIC against normal gut microflora, broth microdilution", "format": "cell-based", "conditions": "Phocaeicola dorei, HM29", "procedure": "as §1"}, "[6]": {"system": "Bifidobacterium longum HM-845", "assay": "MIC against normal gut microflora, broth microdilution", "format": "cell-based", "conditions": "Bifidobacterium longum, HM845", "procedure": "as §1"}, "[7]": {"system": "Bifidobacterium angulatum HM-1189", "assay": "MIC against normal gut microflora, broth microdilution", "format": "cell-based", "conditions": "Bifidobacterium angulatum, HM1189", "procedure": "as §1"}, "[8]": {"system": "Bifidobacterium breve HM-1120", "assay": "MIC against normal gut microflora, broth microdilution", "format": "cell-based", "conditions": "Bifidobacterium breve, HM1120", "procedure": "as §1"}, "[9]": {"system": "Lactobacillus crispatus HM-371", "assay": "MIC against normal gut microflora, broth microdilution", "format": "cell-based", "conditions": "Lactobacillus crispatus, HM371", "procedure": "as §1"}, "Bacteroides dorei HM-719": {"system": "Bacteroides dorei HM-719", "assay": "MIC against normal gut microflora, broth microdilution", "format": "cell-based", "conditions": "Phocaeicola dorei, HM719", "procedure": "as §1"}, "[10]": {"system": "Bacteroides fragilis HM-714", "assay": "MIC against normal gut microflora, broth microdilution", "format": "cell-based", "conditions": "Bacteroides fragilis, HM714", "procedure": "as §1"}, "[11]": {"system": "Bifidobacterium adolescentis HM-633", "assay": "MIC against normal gut microflora, broth microdilution", "format": "cell-based", "conditions": "Bifidobacterium adolescentis, HM633", "procedure": "as §1"}, "[12]": {"system": "Lactobacillus casei ATCC 334", "assay": "MIC against normal gut microflora, broth microdilution", "format": "cell-based", "conditions": "Lacticaseibacillus casei, ATCC334", "procedure": "as §1"}, "[13]": {"system": "Lactobacillus reuteri HM-102", "assay": "MIC against normal gut microflora, broth microdilution", "format": "cell-based", "conditions": "Limosilactobacillus reuteri, HM102", "procedure": "as §1"}, "Bacteroides dorei HM-717": {"system": "Bacteroides dorei HM-717", "assay": "MIC against normal gut microflora, broth microdilution", "format": "cell-based", "conditions": "Phocaeicola dorei, HM717", "procedure": "as §1"}, "[14]": {"system": "C. difficile ATCC BAA-1870", "assay": "Checkerboard assay, DIHQ with metronidazole or vancomycin", "format": "cell-based, Clostridium difficile", "procedure": "(§2) The fractional inhibitory concentration index (ΣFIC) was calculated for each interaction. Interactions where the ΣFIC index was ≤0.5 were categorized as synergistic (SYN)."}, "C. difficile ATCC 43255 [15]": {"system": "C. difficile ATCC 43255", "assay": "Checkerboard assay, DIHQ with metronidazole or vancomycin", "format": "cell-based, Clostridium difficile", "procedure": "as §2"}, "C. difficile I9": {"system": "C. difficile I9", "assay": "Checkerboard assay, DIHQ with metronidazole or vancomycin", "format": "cell-based, Clostridium difficile", "procedure": "as §2"}, "C. difficile ATCC 43255 [16]": {"system": "C. difficile ATCC 43255", "assay": "Initial screening of antiparasitic drugs, broth microdilution MIC", "format": "cell-based, Clostridium difficile", "conditions": "Clostridioides difficile, ATCC43255", "procedure": "C. difficile strains were grown anaerobically on brain heart infusion supplemented (BHIS) agar plates at 37° C. for 48 hours. Afterwards, a bacterial solution equivalent to 0.5 McFarland standard was prepared and diluted in (BHIS) broth to achieve a bacterial concentration of about 5×10^5 CFU/mL. Drugs were added and serially diluted along the plates. Plates were then, incubated anaerobically at 37° C. for 48 hours. MICs reported in Table (1) are the minimum concentrations of the drugs that could completely suppress the visual growth of bacteria."}, "C. difficile NR-49277 [17]": {"system": "C. difficile NR-49277", "assay": "Toxin A and B production inhibition, ELISA", "format": "cell-based, Clostridium difficile", "conditions": "C. difficile NR-49277, ¼×MIC and ½×MIC", "procedure": "(§3) To investigate DIHQs toxin production inhibitory activity, toxin A and toxin B levels were measured as described previously. […] An aliquot from each tube was diluted and plated on BHIS agar plates and incubated anaerobically at 37° C. for 24 hours to detect the bacterial count. The total concentration of C. difficile toxin A and B was measured in the supernatant of each tube using enzyme linked immunosorbent assay (ELISA) kit (tgc BIOMICS, Dunwoody, GA) following the manufacturer's instructions. The (OD450-OD620) values, corresponding to the toxin concentration, were measured for DIHQ and control drugs."}, "[18]": {"system": "C. difficile ATCC BAA-1870", "assay": "Toxin A and B production inhibition, ELISA", "format": "cell-based, Clostridium difficile", "conditions": "C. difficile ATCC BAA-1870, ¼×MIC and ½×MIC", "procedure": "as §3"}, "C. difficile ATCC 43255 [19]": {"system": "C. difficile ATCC 43255", "assay": "Toxin A and B production inhibition, ELISA", "format": "cell-based, Clostridium difficile", "conditions": "C. difficile ATCC 43255, ¼×MIC and ½×MIC", "procedure": "as §3"}, "C. difficile NR-49277 [20]": {"system": "C. difficile NR-49277", "assay": "Time kill kinetics assay", "format": "cell-based, Clostridium difficile", "conditions": "C. difficile NR-49277, 5×MIC, 24 hours", "procedure": "(§4) Time kill kinetics assay. In order to examine the killing kinetics of DIHQ, a time kill kinetics assay was performed against Clostridium difficile ATCC BAA 1870 and C. difficile NR-49277 as described previously. […] Aliquots were collected from each treatment after 0, 4, 6, 8, 12, and 24 hours of incubation at 37° C. and subsequently serially diluted and plated for viable CFU/mL determination."}, "[21]": {"system": "C. difficile ATCC BAA-1870", "assay": "Time kill kinetics assay", "format": "cell-based, Clostridium difficile", "conditions": "C. difficile ATCC BAA-1870, 5×MIC, 24 hours", "procedure": "as §4"}},
  "data": [
    {"compound": "CN[C@H](CC(C)C)C(=O)N[C@H]1C(=O)N[C@@H](CC(N)=O)C(=O)N[C@H]2C(=O)N[C@H]3C(=O)N[C@H](C(=O)N[C@H](C(=O)O)c4cc(O)cc(O)c4-c4cc3ccc4O)[C@H](O)c3ccc(c(Cl)c3)Oc3cc2cc(c3O[C@@H]2O[C@H](CO)[C@@H](O)[C@H](O)[C@H]2O[C@H]2C[C@](C)(N)[C@H](O)[C@H](C)O2)Oc2ccc(cc2Cl)[C@H]1O", "note": "[Vancomycin, vancomycin]", "values": [
      {"measurement": "MIC", "setting": "[1]", "value": 128, "unit": "µg/mL"},
      {"measurement": "MIC", "setting": "Bacteroides dorei HM-718", "value": 128, "unit": "µg/mL"},
      {"measurement": "MIC", "setting": "[2]", "value": 64, "unit": "µg/mL"},
      {"measurement": "MIC", "setting": "[3]", "value": "≤ 1", "unit": "µg/mL"},
      {"measurement": "MIC", "setting": "[4]", "value": 64, "unit": "µg/mL"},
      {"measurement": "MIC", "setting": "[5]", "value": "≤ 1", "unit": "µg/mL"},
      {"measurement": "MIC", "setting": "Bacteroides dorei HM-29", "value": 64, "unit": "µg/mL"},
      {"measurement": "MIC", "setting": "[6]", "value": "≤ 1", "unit": "µg/mL"},
      {"measurement": "MIC", "setting": "[7]", "value": "≤ 1", "unit": "µg/mL"},
      {"measurement": "MIC", "setting": "[8]", "value": "≤ 1", "unit": "µg/mL"},
      {"measurement": "MIC", "setting": "[9]", "value": 4, "unit": "µg/mL"},
      {"measurement": "MIC", "setting": "Bacteroides dorei HM-719", "value": 64, "unit": "µg/mL"},
      {"measurement": "MIC", "setting": "[10]", "value": 128, "unit": "µg/mL"},
      {"measurement": "MIC", "setting": "[11]", "value": "≤ 1", "unit": "µg/mL"},
      {"measurement": "MIC", "setting": "[12]", "value": "> 128", "unit": "µg/mL"},
      {"measurement": "MIC", "setting": "[13]", "value": "> 128", "unit": "µg/mL"},
      {"measurement": "MIC", "setting": "Bacteroides dorei HM-717", "value": 128, "unit": "µg/mL"},
      {"measurement": "MIC of vancomycin combined with DIHQ", "setting": "[14]; C. difficile ATCC BAA-1870", "value": 0.125, "unit": "µg/mL"},
      {"measurement": "MIC", "setting": "[14]; Clostridioides difficile, ATCCBAA1870, read-out: MIC alone", "value": 1, "unit": "µg/mL"},
      {"measurement": "MIC of vancomycin combined with DIHQ", "setting": "C. difficile ATCC 43255 [15]; C. difficile ATCC 43255", "value": 0.125, "unit": "µg/mL"},
      {"measurement": "MIC", "setting": "C. difficile ATCC 43255 [15]; Clostridioides difficile, ATCC43255, read-out: MIC alone", "value": 1, "unit": "µg/mL"},
      {"measurement": "MIC of vancomycin combined with DIHQ", "setting": "C. difficile I9; C. difficile I9", "value": 0.125, "unit": "µg/mL"},
      {"measurement": "MIC", "setting": "C. difficile I9; Clostridioides difficile, I9, read-out: MIC alone", "value": 1, "unit": "µg/mL"},
      {"measurement": "MIC", "setting": "C. difficile ATCC 43255 [16]", "value": 1, "unit": "µg/mL"},
      {"measurement": "toxin inhibition (in words)", "setting": "C. difficile NR-49277 [17]", "value": "No toxin inhibition"},
      {"measurement": "toxin inhibition (in words)", "setting": "[18]", "value": "No toxin inhibition"},
      {"measurement": "toxin inhibition (in words)", "setting": "C. difficile ATCC 43255 [19]", "value": "No toxin inhibition"},
      {"measurement": "reduction of bacterial burden within 24 hours", "setting": "C. difficile NR-49277 [20]", "value": 1.22, "unit": "log10 CFU/mL"},
      {"measurement": "reduction of bacterial burden within 24 hours", "setting": "[21]", "value": 1.7, "unit": "log10 CFU/mL"}
    ]}
  ]
}
